Experimental data from the NIST ThermoML archive (doi:10.1016/j.fluid.2014.11.020).
± gives the expanded uncertainty stated by the source.

Experiment: activity coefficient (dimensionless); of the first substance listed, at infinite dilution; xn = mol fraction of the nth substance listed
Conditions: Liquid, Chromatography, x1 = 0

SMILES | activity coefficient (323.15 K) | activity coefficient (333.15 K) | activity coefficient (343.15 K)
ClC(Cl)Cl [trichloromethane] + Cn1cc[n+](COCCCOC[n+]2ccn(C)c2)c1.N#C[N-]C#N.N#C[N-]C#N | 1.02 ± 0.06 | 1.08 ± 0.07 | 1.14 ± 0.07
ClC(Cl)Cl [trichloromethane] + Cn1cc[n+](COCCCOC[n+]2ccn(C)c2)c1.O=S(=O)([N-]S(=O)(=O)C(F)(F)F)C(F)(F)F.O=S(=O)([N-]S(=O)(=O)C(F)(F)F)C(F)(F)F | 0.87 ± 0.06 | 0.89 ± 0.06 | 0.71 ± 0.05
ClC(Cl)Cl [trichloromethane] + N#C[N-]C#N.N#C[N-]C#N.c1ccc(Cn2cc[n+](COCCCOC[n+]3ccn(Cc4ccccc4)c3)c2)cc1 | 1.22 ± 0.08 | 1.2 ± 0.08 | 1.33 ± 0.09
CCCCCCCCCCCCC [tridecane] + CCCOC[n+]1ccc(N(C)C)cc1.O=S(=O)([N-]S(=O)(=O)C(F)(F)F)C(F)(F)F | 102 ± 7 | 96.4 ± 6.6 | 81.9 ± 5.6
CCCCCCCCCCCCC [tridecane] + CCCOC[n+]1ccn(C)c1.F[B-](F)(F)F | 1640 ± 110 | 1630 ± 110 | 1630 ± 110
CCCCCCCCCCCCC [tridecane] + CCCOC[n+]1ccn(C)c1.N#C[N-]C#N | 1150 ± 79 | 1030 ± 71 | 916 ± 63
CCCCCCCCCCCCC [tridecane] + CCCOC[n+]1ccn(C)c1.O=S(=O)([N-]S(=O)(=O)C(F)(F)F)C(F)(F)F | 201 ± 14 | 165 ± 11 | 147 ± 10
CCN(CC)CC [triethylamine] + CCCCCCCCn1cc[n+](COCCC)c1C.O=S(=O)([N-]S(=O)(=O)C(F)(F)F)C(F)(F)F | 1.2 ± 0.08 | – | –
CCN(CC)CC [triethylamine] + CCCOC[n+]1ccn(C)c1.N#C[N-]C#N | 10.3 ± 0.7 | 15.7 ± 1.1 | 24.8 ± 1.7
CCN(CC)CC [triethylamine] + CCCOC[n+]1ccn(Cc2ccccc2)c1.N#C[N-]C#N | 9.22 ± 0.63 | – | –
CCN(CC)CC [triethylamine] + Cn1cc[n+](COCCCOC[n+]2ccn(C)c2)c1.N#C[N-]C#N.N#C[N-]C#N | 54.6 ± 3.7 | 52.5 ± 3.6 | 50.5 ± 3.5
CCCCCCCCCCC [undecane] + CCCCCCCCn1cc[n+](COCCC)c1C.N#C[N-]C#N | 20.6 ± 1.4 | 19.6 ± 1.3 | 18.2 ± 1.2
CCCCCCCCCCC [undecane] + CCCCCCCCn1cc[n+](COCCC)c1C.O=S(=O)([N-]S(=O)(=O)C(F)(F)F)C(F)(F)F | 11.2 ± 0.76 | 10.5 ± 0.72 | 9.8 ± 0.67
CCCCCCCCCCC [undecane] + CCCCCCCCn1cc[n+](COCCCOC[n+]2ccn(CCCCCCCC)c2C)c1C.N#C[N-]C#N.N#C[N-]C#N | 24.4 ± 1.7 | 23.4 ± 1.6 | 22.4 ± 1.5
CCCCCCCCCCC [undecane] + CCCCCCCCn1cc[n+](COCCCOC[n+]2ccn(CCCCCCCC)c2C)c1C.O=S(=O)([N-]S(=O)(=O)C(F)(F)F)C(F)(F)F.O=S(=O)([N-]S(=O)(=O)C(F)(F)F)C(F)(F)F | 12.4 ± 0.85 | 11.1 ± 0.76 | 10.6 ± 0.72
CCCCCCCCCCC [undecane] + CCCOC[n+]1ccc(N(C)C)cc1.O=S(=O)([N-]S(=O)(=O)C(F)(F)F)C(F)(F)F | 55.7 ± 3.8 | 52.9 ± 3.6 | 46.6 ± 3.2
CCCCCCCCCCC [undecane] + CCCOC[n+]1ccn(C)c1.F[B-](F)(F)F | 911 ± 63 | 883 ± 61 | 780 ± 54
CCCCCCCCCCC [undecane] + CCCOC[n+]1ccn(C)c1.N#C[N-]C#N | 556 ± 38 | 504 ± 35 | 432 ± 30
CCCCCCCCCCC [undecane] + CCCOC[n+]1ccn(C)c1.O=S(=O)([N-]S(=O)(=O)C(F)(F)F)C(F)(F)F | 89.7 ± 6.2 | 85.9 ± 5.9 | 75.3 ± 5.2
